Assay results reported in patent US4192871A, “Chemical compounds” (Glaxo Laboratories Limited, priority 1976, dated 1980).
Counter-ions that a name gives are not always drawn.

Key:
[1] = dissolution of the 11β-aminoester salts in aqueous acid (Table 5 and Examples 101, 225-229); format: physicochemical
Experimental: (§1) A solution of the above free base (492 mg; 1 mmole) in ethanol (10 ml) was treated with a solution (10 ml) of M/10 citric acid in ethanol water (9:1) and the mixture evaporated in vacuo at low temperature to afford a froth.
(§2) Table 5 summarises the properties and preparation of salts of the invention by one of the following methods:
(§3) A. The 11β-aminoester (1 part) was added to a solution of the acid (1 molar part) in water and the mixture stirred or shaken until a clear solution was obtained. The solution was made up with water to the weight indicated, filtered through a membrane and the pH determined.
(§4) B. The 11β-aminoester (1 part) was added to a solution of the acid (1 molar part) in water and the mixture stirred or shaken. As free base remained undissolved, further acid was added and the mixture agitated again. The solution was made up with water to the weight indicated and any material which then remained undissolved was collected in a weighed funnel and the weight of free base dissolved calculated and the pH of the solution measured.
(§5) C. A mixture of the 11β-aminoester (1 part), a 0.1 M solution of the acid (1 molar part) and ethanol was evaporated in vacuo and dried to constant weight. The residue was dissolved in a little water and any material which then remained undissolved collected in a weighed funnel and the weight of free base dissolved calculated. The solution was made up with water to the weight indicated and its pH measured.
(§6) D. The 11β-aminoester (1 part) was added to a solution of the acid (1 molar part) in water and the mixture stirred or shaken. The solution was made up with water to the weight indicated. The material remaining undissolved was collected in a weighed funnel and the weight of free base dissolved calculated and the pH of the solution measured.
(§7) E. As in method C except that further acid was added to the residue after addition of the small amount of water.
The solid citric acid used was as its monohydrate.
(§8) Sodium iodide (0.250 g) and diethylamine (0.5 ml) were added to a solution of 11β-chloroacetoxy-2β-ethoxy-3α-hydroxy-D-homo-5α-pregnan-20-one (0.250 g) in acetone (10 ml) and the mixture was left at room temperature for 3 days during which time a white solid precipated. Water was added and the yellow solution was concentrated in vacuo whereupon crystallisation occurred. The needles were filtered off and washed well with acetone/water yielding the title compound (0.201 g), m.p. 160°-73°, [α]D +60.8°. The above base (0.101 g) was stirred with citric acid monohydrate (0.042 g) in water (9.5 ml) for 21 hours. The solution was made up to 10.1 g by weight. The solid remaining out of solution was filtered off, dried and weighed. The solution was passed through a millipore filter giving an aqueous solution of the title compound, concentration 9.75 mg/ml, pH 3.66.
The above base (0.096 g) was stirred in a solution of citric acid monohydrate (0.038 g) in water (8.5 ml) for 20 hours. A large proportion of the steroid remained out of solution. More citric acid (0.038 g) was added and the mixture stirred for a further 6 hours. The solution was made up to 9.6 g by weight and the solid remaining out of solution was filtered off, dried and weighed. The solution was passed through a millipore filter giving an aqueous solution of the title compound, concentration 9.5 mg/ml, pH 2.85.
To a solution of citric acid monohydrate (52.5 mg) in water (2 ml) was added the above free base (115 mg). More water (8 ml) was added and the mixture was stirred for 72 hrs. A small amount of steroid remained out of solution and more citric acid (52.5 mg) was added. Within 5 mins. a clear solution was obtained which was made up to 11.5 g with water and filtered through a millipore filter yielding an aqueous solution of the title citrate, concentration 10 mg/ml, pH 3.0.
The above free base (112 mg) was added to a solution of citric acid monohydrate (52.5 mg) in water (2 ml). More water (8 ml) was added and the mixture was swirled from time to time. […]

pH of the salt solutions = format: physicochemical
Experimental: as §1, §2, §3, §4, §5, §6, §7
11β-N,N-Diethylaminoacetoxy-2β-ethoxy-3α-hydroxy-5α-pregnan-20-one (1.45 g) was agitated with citric acid monohydrate (621 mg) in 0.9% w/v sodium chloride solution (steriflex^(R)) (130 ml.) at 20° for 16.5 hours. The resulting solution was stirred at 21° and N/5 sodium hydroxide solution in steriflex^(R) (10.5 ml) was added dropwise during 30 minutes, raising the pH from 3.63 to 4.52. The solution was diluted to 162.5 g so that the concentration of steroid was 9 mg/ml. The solution of the citrate was filtered through a membrane and finally filtered into 8 sterile ampoules.
11β-(N-Butyl-N-ethylaminoacetoxy)-3α-hydroxy-5α-pregnan-20-one (1.80 g) was agitated with citric acid monohydrate (793 mg) in 0.9% w/v sodium chloride solution (steriflex^(R)) (160 ml) at 20° for 19.5 hours. The resulting solution was slightly cloudy. This solution was stirred at 21° and N/5 sodium hydroxide solution in steriflex^(R) (5.8 ml) was added dropwise during 15 minutes, raising the pH from 3.62 to 4.00. The solution was diluted to 201.2 g so that the concentration of steroid was 9 mg/ml. The cloudiness was removed by filtration through a membrane and the clear solution of the citrate was filtered into 8 sterile ampoules.
as §8, with “3.66. […]” for “3.66.”

[2] = method B: further acid added, undissolved material weighed, WT. of solution 10 g, except Ex. 130 and 141: 9.2, 142: 9.23, 143, 144, 189 and 199: 9.8, 149: 10.6, 153: 7.9, 162 and 188: 9.5, 163: 68, 166: 10.4, 168: 10.7, 169: 10.9, 183: 8.05, 184 and 201: 9.83, 185: 7.1, 186: 9.3, 192: 10.07, 193: 6.4, 195: 6.8, 196: 7, 197: 7.2, 200: 10.1, 206: 15 g
[3] = aqueous solution of the salt, Table 5
[4] = method A: clear solution, 1 molar part acid, made up with water to WT. of solution 10 g, except Ex. 121 and 150: 12, 123: 12.3, 124: 7.5, 129: 10.3, 135 and 139: 8.95, 164: 10.35, 170: 10.4, 181: 10.04, 187: 9.5, 210: 10.2, 221: 15 g
[5] = method D: 1 molar part acid, undissolved material weighed, WT. of solution 10 g, except Ex. 136: 8.95, 140: 9.52, 165 and 167: 10.1, 190 and 198: 9.8, 191: 8.9, 194: 6.6, 204: 10.09, 219: 10.6 g
[6] = method C: ethanol evaporated, residue in water, undissolved material weighed, WT. of solution Ex. 118: 10, 120: 10.4, 148: 9.54, 152: 5.6, 154: 9.1, 155: 8.77, 156: 9.06, 157: 9.5, 158: 9.38, 159: 9.17, 179: 9.65, 180: 11.7, 182: 4.9, 202: 12.05, 213: 12, 214: 11.5, 215: 11.1, 216: 11.6, 217: 12.1 g

Row | SMILES | Dissolved aminoester [1, 2] | pH (pH of the salt solutions; [3]) | other results
1 | CCCCOC1CC2(C)C(CCC3C4CCC(C(C)=O)C4(C)CC(OC(=O)CN4CCC(C)CC4)C32)CC1O (centres unmarked) [Example 169] | 80.5 mg | 2.8 | 
2 | CCCCN(C)CC(=O)OC1CC2(C)C(CC(C)C2C(C)=O)C2CCC3CC(O)CCC3(C)C12 (centres unmarked) [Example 177] |  |  | Dissolved aminoester [1, 4]: 100 mg; pH (pH of the salt solutions; aqueous solution, pH adjusted with sodium hydroxide solution): 4.0
3 | CC(=O)C1CCC2C3CCC4CC(O)CCC4(C)C3C(OC(=O)CNC(C)CC(C)C)CC12C (centres unmarked) [Example 162] | 86 mg | 3.0 | 
4 | CC(=O)[C@H]1CC[C@H]2[C@@H]3CC[C@H]4C[C@](C)(O)CC[C@]4(C)[C@H]3[C@@H](OC(=O)CN3CCC(C)CC3)C[C@]12C [Example 134] |  | 3.2 | Dissolved aminoester [1, 5]: 84 mg
5 | CC(=O)[C@H]1CC[C@H]2[C@@H]3CC[C@H]4C[C@H](O)CC[C@]4(C)[C@H]3[C@@H](OC(=O)CN(C(C)C)C(C)C)C[C@]12C [Example 153] | 79 mg | 3.02 | 
6 | CC(=O)[C@H]1CC[C@H]2[C@@H]3CC[C@H]4C[C@H](O)CC[C@]4(C)[C@H]3[C@@H](OC(=O)CN(C)C(C)C)C[C@]12C [Example 183] | 57.5 mg | 2.69 | 
7 | CC(=O)[C@H]1CC[C@H]2[C@@H]3CC[C@H]4C[C@H](O)CC[C@]4(C)[C@H]3[C@@H](OC(=O)CN(C)C(C)(C)C)C[C@]12C [Example 201] | 98.3 mg | 3.12 | 
8 | CCN(CC)CC(=O)O[C@H]1C[C@]2(C)[C@@H](C(C)=O)CC[C@H]2[C@@H]2CC[C@H]3C[C@H](O)[C@@H](SC#N)C[C@]3(C)[C@H]21 [Example 204] |  | 3.5 | Dissolved aminoester [1, 5]: 88.7 mg
9 | CCCCNCC(=O)O[C@H]1C[C@]2(C)[C@@H](C(C)=O)CC[C@H]2[C@@H]2CC[C@H]3C[C@H](O)CC[C@]3(C)[C@H]21 [Example 136] |  | 3.60 | Dissolved aminoester [1, 5]: 83.5 mg
10 | CC(=O)[C@H]1CC[C@H]2[C@@H]3CC[C@H]4C[C@H](O)CC[C@]4(C)[C@H]3[C@@H](OC(=O)CN3CCCCC3C)C[C@]12C (some centres unmarked) [Example 148] |  | 3.55 | Dissolved aminoester [1, 6]: 95.4 mg
11 | CC(=O)[C@H]1CC[C@H]2[C@@H]3CC[C@H]4C[C@H](O)CC[C@]4(C)[C@H]3[C@@H](OC(=O)CN(C)CCc3ccccc3)C[C@]12C [Example 126] | 56 mg | 2.65 | 
12 | CC(=O)[C@H]1CC[C@H]2[C@@H]3CC[C@H]4C[C@H](O)CC[C@]4(C)[C@H]3[C@@H](OC(=O)C(C)N3CCCCC3)C[C@]12C (some centres unmarked) [Example 180] |  | 3.60 | Dissolved aminoester [1, 6]: 117 mg
13 | CO[C@H]1C[C@@]2(C)[C@@H](CC[C@@H]3[C@@H]2[C@@H](OC(=O)CN2CCCCC2)C[C@]2(C)[C@@H](C(C)=O)CC[C@@H]32)C[C@@H]1O [Example 123] |  | 3.6 | Dissolved aminoester [1, 4]: 122 mg
14 | CCOC1CC2(C)C(CCC3C4CCC(C(C)=O)C4(C)CC(OC(=O)CNCCC(C)C)C32)CC1O (centres unmarked) [Example 165] |  | 3.68 | Dissolved aminoester [1, 5]: 76.5 mg
15 | CCCN(CCC)CC(=O)O[C@H]1C[C@]2(C)[C@@H](C(C)=O)CC[C@H]2[C@@H]2CC[C@H]3C[C@H](O)CC[C@]3(C)[C@H]21 [Example 214] |  | 3.52 | Dissolved aminoester [1, 6]: 115 mg
16 | CC(=O)[C@H]1CC[C@H]2[C@@H]3CC[C@H]4C[C@H](O)CC[C@]4(C)[C@H]3[C@@H](OC(=O)CNC(C)CCC(C)C)C[C@]12C (some centres unmarked) [Example 143] | 86 mg | 2.85 | 
17 | CCN(CC)CC(=O)O[C@H]1C[C@]2(C)[C@@H](C(C)=O)CC[C@H]2[C@@H]2C[C@@H](C)[C@H]3C[C@H](O)CC[C@]3(C)[C@H]21 [Example 171] |  | 3.4 | Dissolved aminoester [1, 4]: 100 mg
18 | CCCCN(C)CC(=O)O[C@H]1C[C@]2(C)[C@@H](C(C)=O)CC[C@H]2[C@@H]2CC[C@H]3C[C@H](O)CC[C@@H]3[C@H]21 [Example 228 citrate salt] |  |  | concentration of aqueous solution of the citrate ([1]; citric acid monohydrate in water, filtered solution): 10 mg/mL; pH (pH of the salt solutions; aqueous solution of the citrate, filtered, 9.5-10 mg/ml): 3.77
19 | CC(=O)[C@H]1CC[C@H]2[C@@H]3CC[C@H]4C[C@H](O)CC[C@]4(C)[C@H]3[C@@H](OC(=O)CN3CCCCCC3)C[C@]12C [Example 159] |  | 3.55 | Dissolved aminoester [1, 6]: 91.7 mg
20 | CCCN(CCC)CC(=O)O[C@H]1C[C@]2(C)[C@@H](C#N)CC[C@H]2[C@@H]2CC[C@H]3C[C@H](O)CC[C@]3(C)[C@H]21 [Example 206] | 84 mg | 2.7 | 
21 | CCN(C)CC(=O)O[C@H]1C[C@]2(C)[C@@H](C(C)=O)CC[C@H]2[C@@H]2CC[C@H]3C[C@H](O)CC[C@]3(C)[C@H]21 [Example 116] |  | 3.63 | Dissolved aminoester [1, 4]: 100 mg
22 | CCCCN(CC)CC(=O)OC1CC2(C)C(C(C)=O)CCC2C2CCC3CC(O)C(C)CC3(C)C12 (centres unmarked) [Example 174] | 100 mg | 2.90 | 
